Laboratory results as given in patent US8921405B2, “Compounds” (Orexo AB, priority 2009, dated 2014).

Biological target: T1, recombinant human mPGES-1 (Homo sapiens, UniProt O14684)
T1 construct: made in house; host or cells: Rosetta E. coli (membrane/microsome fraction)
T1 sequence (O14684 1-152): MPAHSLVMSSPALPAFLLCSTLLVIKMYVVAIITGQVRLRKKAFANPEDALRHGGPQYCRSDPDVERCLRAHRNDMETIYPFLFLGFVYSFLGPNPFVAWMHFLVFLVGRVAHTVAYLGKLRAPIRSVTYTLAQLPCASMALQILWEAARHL
Test: mPGES-1 HTRF assay (inhibition of PGE2 formation from PGH2)
Type: biochemical
Conditions: compound concentration of 10 μM, HTRF assay; read-out: % inhibition
Protocol: The basis of the assay used is to measure the inhibition of microsomal prostaglandin E2 synthase-1 (mPGES-1) dependent prostaglandin (PG) E2 formation from PGH2 by different compounds. Thus, the formation of PGE2 is used as signal and a lowering of this signal can be interpreted as inhibition of mPGES-1. […] Microsomes from Rosetta E. coli bacteria expressing recombinant human mPGES-1 can be derived as described below: Inoculate 5 ml LB with Amp and Chloro with bacteria from freeze culture. Incubate over night at 37° C. with 200 rpm. Thereafter, inoculate 500-800 ml LB containing Amp and Chloro with the 5 ml on culture and grow to OD640 of 0.6-0.8. Chill the culture to +4° C. before induction. Induce the culture with IPTG at a final concentration of 400 μM. Express the protein at room temp 18-23° C. with 200 rpm shaking over night. The following steps can be performed on the following day: • 1. Spin down the cells in 250 ml centrifuge flasks for 15 min at 7000 rpm • 2. Dissolve the pellet from 250 ml culture in 12.5 ml homogenization buffer • 3. Disintegrate the cells by sonication, 4×10 seconds at 35% amplitude • 4. Add 2.5 ml MgCl2 (100 mM) and DNase 12.5 μl (0.8 mg/ml) and incubate on ice for 30 min • 5. Spin down the bacteria debris and save the supernatant, 7000 rpm for 15 min • 6. Isolate the protein containing membranes in the supernatant by ultracentrifugation 45000×g for 1 hour. • 7. Discard the supernatant and dissolve the pellet in 20 mM KPi buffer and aliquot the enzyme and store aliquots at −80° C. Before each experiment is performed an aliquot of the enzyme is thawed and it can then be dissolved in 0.1 M KPi pH 7.4 buffer containing 2.5 mM GSH. 50 μl of this enzyme solution is subsequently dispensed in a 384-well plate at room temperature. 0.5 μl of the inhibitor dissolved in DMSO is thereafter added to each well and incubated for 25 minutes at room temperature. Subsequently, 2 μl of PGH2 dissolved in an appropriate solvent is added to each well and after one minute at room temperature, the acidified stop solution containing FeCl2 is added. 4 μl of the total volume is transferred to a separate plate and diluted 750-fold in two separate steps before quantification of PGE2. In order to quantitate the amount of PGE2 that has been formed, a homogenous time resolved fluorescent (HTRF) detection of PGE2 can be performed by the use of a commercially available kit from CisBio essentially according to the manufacturer's protocol. […] The sealing film is thereafter removed from the NC wells. • 5 μl Eu3+-cryptate labeled anti-PGE2 can now be added to rows 1 to 24 by using a Multidrop. • The plate can now be covered with sealing film. • The plate can now be centrifuge at 1200 rpm for 1 minute and place at 4° C. overnight. After the over night incubation the fluorescence is measured by the use of an appropriate microplate reader. […] The extent of the specific HTRF is measured as a ratio of the emission intensity at 665 nm vs. that at 620 nm. A standard curve using synthetic PGE2 is used to quantify the amount of PGE2 in unknown samples. The degree of inhibition can be calculated as percent inhibition by dividing the amount of PGE2 formed in unknown samples by the amount of PGE2 formed in control samples.

`Cn1c(Nc2cc(CNC(=O)C3(C)CCCCC3)ccc2Cl)nc2cc(Cl)c(NC(=O)c3ccc(Br)cc3)cc21` [Example 25, 4-Bromo-N-(5-chloro-2-{2-chloro-5-[(1-methylcyclohexylamido)methyl]phenylamino}-1-methyl-6-benzimidazolyl)benzamide] was tested, and the inhibition at 10 µM was 99%.

`CN(C1CCCC1)S(=O)(=O)c1ccc2c(c1)nc(Nc1cc(CNC(=O)C3(C)CCCCC3)ccc1Cl)n2C` [Example 26, N-{4-Chloro-3-[5-(N-cyclopentyl-N-methylsulfamoyl)-1-methyl-2-benzimidazolylamino]benzyl}-1-methylcyclohexylamide] showed an inhibition at 10 µM of 100%.

With `Cn1c(Nc2cc(CNC(=O)c3c(F)cccc3Cl)ccc2Cl)nc2cc(C(=O)NCC3CCCCC3)ccc21` [Example 27, 2-{2-Chloro-5-[(2-chloro-6-fluorobenzamido)methyl]phenylamino}-N-cyclohexylmethyl-1-methylbenzimidazole-5-carboxamide] the inhibition at 10 µM was 100%.

`Cn1c(Nc2cc(CNC(=O)C3CCCO3)ccc2Cl)nc2cc(C(=O)NCC3CCCCC3)ccc21` (stereo not drawn) [Example 28, 2-{2-Chloro-5-[(2-tetrahydrofurylamido)methyl]phenylamino}-N-cyclohexylmethyl-1-methylbenzimidazole-5-carboxamide] gave an inhibition at 10 µM of 100%.

`Cn1c(Nc2cc(CNC(=O)C3(C(F)(F)F)CC3)ccc2Cl)nc2cc(C(=O)NCC3CCCCC3)ccc21` [Example 30, 2-{2-chloro-5-[(1-trifluoromethylcyclopropylamido)methyl]phenyl-amino}-N-cyclohexylmethyl-1-methylbenzimidazole-5-carboxamide] gave an inhibition at 10 µM of 98%.

In the case of `Cn1c(Nc2cc(CNC(=O)C3(C)CCCC3)ccc2Cl)nc2cc(C(=O)NCC3CCCCC3)ccc21` [Example 31, 2-{2-Chloro-5-[(1-methylcyclopentylamido)methyl]phenylamino}-N-cyclohexylmethyl-1-methylbenzimidazole-5-carboxamide], the inhibition at 10 µM was 99%.

With `CC(=O)NCc1ccc(Cl)c(Nc2nc3cc(C(=O)NCC4CCCCC4)ccc3n2C)c1` [Example 32, 2-[5-(Acetamidomethyl)-2-chlorophenylamino]-N-cyclohexylmethyl-1-methylbenzimidazole-5-carboxamide] the inhibition at 10 µM was 98%.

`Cn1c(Nc2cc(CNC(=O)OC(C)(C)C)ccc2Cl)nc2cc(C(=O)NCC3CCCCC3)ccc21` [Example 33] showed an inhibition at 10 µM of 93%.

With `Cn1c(Nc2cc(CNC(=O)OC(C)(C)C)ccc2Cl)nc2cc(C(=O)Nc3ccc(Br)cc3)ccc21` [Example 34, tert-Butyl 3-[5-(4-bromophenylcarbamoyl)-1-methyl-2-benzimidazolylamino]-4-chlorobenzylcarbamate] the inhibition at 10 µM was 100%.

`Cn1c(Nc2cc(CNC(=O)C3CCC(F)(F)CC3)ccc2Cl)nc2cc(C(=O)Nc3ccc(Br)cc3)ccc21` [Example 35, N-(4-Bromophenyl)-2-{2-chloro-5-[(4,4-difluorocyclohexylamido)-methyl]phenylamino]-1-methylbenzimidazole-5-carboxamide] showed an inhibition at 10 µM of 100%.

For `Cn1c(Nc2cc(CNC(=O)c3c(F)cccc3Cl)ccc2Cl)nc2cc(C(=O)Nc3ccc(Br)cc3)ccc21` [Example 36, N-(4-Bromophenyl)-2-{2-chloro-5-[(2-chloro-6-fluorobenzamido)methyl]phenylamino}-1-methylbenzimidazole-5-carboxamide], the inhibition at 10 µM was 100%.

`Cn1c(Nc2cc(CNC(=O)C3(C(F)(F)F)CC3)ccc2Cl)nc2cc(C(=O)Nc3ccc(Br)cc3)ccc21` [Example 37, N-(4-Bromophenyl)-2-{2-chloro-5-[(1-trifluoromethylcyclopropylamido)methyl]phenylamino}-1-methylbenzimidazole-5-carboxamide] showed an inhibition at 10 µM of 100%.

In the case of `Cn1c(Nc2cc(CNC(=O)C3(C#N)CC3)ccc2Cl)nc2cc(C(=O)Nc3ccc(Br)cc3)ccc21` [Example 38, N-(4-Bromophenyl)-2-{2-chloro-5-[(1-cyanocyclopropylamido)methyl]-phenylamino}-1-methylbenzimidazole-5-carboxamide], the inhibition at 10 µM was 100%.

For `Cn1c(Nc2cc(CNC(=O)[C@@H]3C[C@H]3c3ccccc3)ccc2Cl)nc2cc(C(=O)Nc3ccc(Br)cc3)ccc21` [Example 39, N-(4-Bromophenyl)-2-{2-chloro-5-[(trans-2-phenylcyclopropylamido)-methyl]phenylamino}-1-methylbenzimidazole-5-carboxamide], the inhibition at 10 µM was 100%.

For `Cn1c(Nc2cc(CNC(=O)C3(C)COC3)ccc2Cl)nc2cc(C(=O)Nc3ccc(Br)cc3)ccc21` [Example 40, N-(4-Bromophenyl)-2-{2-chloro-5-[(3-methyl-3-oxetanylamido)methyl]-phenylamino}-1-methylbenzimidazole-5-carboxamide], the inhibition at 10 µM was 98%.

In the case of `Cn1c(Nc2cc(CNC(=O)C3(C)CCCC3)ccc2Cl)nc2cc(C(=O)Nc3ccc(Br)cc3)ccc21` [Example 41, N-(4-Bromophenyl)-2-{2-chloro-5-[(1-methylcyclopentylamido)methyl]-phenylamino}-1-methylbenzimidazole-5-carboxamide], the inhibition at 10 µM was 100%.

With `Cn1c(Nc2cc(CNC(=O)C3(C#N)CCCC3)ccc2Cl)nc2cc(C(=O)Nc3ccc(Br)cc3)ccc21` [Example 42, N-(4-Bromophenyl)-2-{2-chloro-5-[(1-cyanocyclopentylamido)methyl]-phenylamino}-1-methylbenzimidazole-5-carboxamide] the inhibition at 10 µM was 100%.

For `CC(=O)NCc1ccc(Cl)c(Nc2nc3cc(C(=O)Nc4ccc(Br)cc4)ccc3n2C)c1` [Example 43, 2-[5-(Acetamidomethyl)-2-chlorophenylamino]-N-(4-bromophenyl)-1-methylbenzimidazole-5-carboxamide], the inhibition at 10 µM was 100%.

`Cn1c(Nc2cc(CNS(=O)(=O)c3cccs3)ccc2Cl)nc2cc(C(=O)Nc3ccc(Br)cc3)ccc21` [Example 44, N-(4-Bromophenyl)-2-{2-chloro-5-[(2-thienylsulfonamido)methyl]phenylamino}-1-methylbenzimidazole-5-carboxamide] showed an inhibition at 10 µM of 100%.

`Cn1c(Nc2cc(CNS(=O)(=O)C3CC3)ccc2Cl)nc2cc(C(=O)Nc3ccc(Br)cc3)ccc21` [Example 45, N-(4-Bromophenyl)-2-{2-chloro-5-[(cyclopropylsulfonamido)methyl]-phenylamino}-1-methylbenzimidazole-5-carboxamide] was tested, and the inhibition at 10 µM was 100%.

In the case of `CCC1(C(=O)NCc2ccc(Cl)c(Nc3nc4cc(C(=O)Nc5ccc(Br)cc5)ccc4n3C)c2)CCCC1` [Example 46, N-(4-Bromophenyl)-2-{2-chloro-5-[(1-ethylcyclopentylamido)methyl]-phenylamino}-1-methylbenzimidazole-5-carboxamide], the inhibition at 10 µM was 100%.

`CSC1(C(=O)NCc2ccc(Cl)c(Nc3nc4cc(C(=O)Nc5ccc(Br)cc5)ccc4n3C)c2)CCCC1` [Example 47, N-(4-Bromophenyl)-2-{2-chloro-5-[(1-methylthiocyclopentylamido)-methyl]phenylamino}-1-methylbenzimidazole-5-carboxamide] showed an inhibition at 10 µM of 100%.

Work on `Cn1c(Nc2cc(CNC(=O)C3(CC4CC4)CCCC3)ccc2Cl)nc2cc(C(=O)Nc3ccc(Br)cc3)ccc21` [Example 48, N-(4-Bromophenyl)-2-{2-chloro-5-[(1-cyclopropylmethylcyclopentyl-amido)methyl]phenylamino}-1-methylbenzimidazole-5-carboxamide] yielded an inhibition at 10 µM of 100%.

`Cn1c(Nc2cc(CNC(=O)C3(C)CCCO3)ccc2Cl)nc2cc(C(=O)Nc3ccc(Br)cc3)ccc21` (stereo not drawn) [Example 49, N-(4-Bromophenyl)-2-{2-chloro-5-[(2-methyl-2-tetrahydrofurylamido)-methyl]phenylamino}-1-methylbenzimidazole-5-carboxamide] gave an inhibition at 10 µM of 100%.
